Data taken from patent EP0677039B1, “CYCLOBUTANE DERIVATIVES AS INHIBITORS OF […] SYNTHETASE AND PROTEIN […]” (Abbott Laboratories, priority 1993, dated 1995).

These molecules were tested against T1, Rat liver microsomal squalene synthetase (Rattus norvegicus, UniProt Q02769) (assay: In vitro inhibition of squalene synthetase). Settings: 10 µM test compound; rat liver microsomes, labelled farnesyl pyrophosphate, 10 minutes at 37 °C; compared to controls with no test compound.
T1 construct: Rat liver microsome, the source of enzyme; from tissue; host or cells: rat liver microsomes
T1 sequence (Q02769 1-416): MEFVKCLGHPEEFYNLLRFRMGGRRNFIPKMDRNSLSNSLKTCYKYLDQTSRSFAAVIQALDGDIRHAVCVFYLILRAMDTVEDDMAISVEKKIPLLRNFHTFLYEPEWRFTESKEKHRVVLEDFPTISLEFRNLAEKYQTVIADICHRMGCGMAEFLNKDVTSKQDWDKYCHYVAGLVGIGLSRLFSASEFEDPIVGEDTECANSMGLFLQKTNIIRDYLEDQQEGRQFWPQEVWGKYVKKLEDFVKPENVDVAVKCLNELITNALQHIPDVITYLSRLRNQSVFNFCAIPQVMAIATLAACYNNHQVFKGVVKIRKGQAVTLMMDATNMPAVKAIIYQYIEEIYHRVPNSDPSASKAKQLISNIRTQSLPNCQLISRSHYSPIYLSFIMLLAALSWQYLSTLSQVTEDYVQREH
Type: biochemical
Method: In vitro inhibition of squalene synthetase may be measured by the following procedure. Rat liver microsomal squalene synthetase activity was measured using farnesyl pyrophosphate as a substrate and quantitating squalene synthesis using labelled farnesyl pyrophosphate and counting the squalene formed. Rat liver microsome, the source of enzyme, was prepared according to the method of Gillies, P. J., et al., Exp. Molc. Pathol. 44: 329-339 (1986), a modification of the procedure of Erickson, S. K., and Cooper, A. D., Metabolism, 29: 991-996 (1980). […] Oxygen was excluded from the closed incubation tube by degassing with nitrogen. The reaction was terminated by the addition of ethanolic KOH and after degassing with N2, the microsomal membranes were solubilized by heating at 60 °C for 30 minutes. The squalene was extracted into hexane, and the squalene was separated from all other radioactive molecules by passage over an activated alumina column. […] The per cent inhibition at a dose of 10 µM (or 1 µM) compared to controls with no test compound was determined. […]
In the case of `CCCN(Cc1ccc(OC2CCCCC2)cc1)C(=O)[C@H]1[C@@H](C(=O)O)[C@H](C(=O)O)[C@@H]1C(=O)N(CCC)Cc1ccc(OC2CCCCC2)cc1` [Example 61B, (1α,2β,3β,4α)-1,2-Di[N-propyl-N-(4-cyclohexyloxybenzyl)aminocarbonyl]cyclobutane-3,4-dicarboxylic acid], the inhibition at 10 µM is reported as 43%.
In the case of `CCCN(Cc1ccc(Oc2ccccc2)cc1)C(=O)[C@H]1[C@@H](C(=O)O)[C@H](C(=O)O)[C@@H]1C(=O)N(C)CC/C=C(\C)CCC=C(C)C` [Example 62B, (1α,2β,3β,4α)-1-[N-Propyl-N-(4-phenoxybenzyl)aminocarbonyl]-2-[N-methyl-N-(homogeranyl)aminocarbonyl]cyclobutane-3,4-dicarboxylic acid], the inhibition at 10 µM is reported as 83%.
For `CCCN(Cc1ccc(Oc2ccccc2)cc1)C(=O)[C@H]1[C@@H](C(=O)O)[C@H](C(=O)O)[C@@H]1C(=O)N(Cc1ccccc1)Cc1ccc(Oc2ccccc2)cc1` [Example 63, (1α,2β,3β,4α)-1-[N-Propyl-N-(4-phenoxybenzyl)aminocarbonyl]-2-[N-benzyl-N-(4-phenoxybenzyl)aminocarbonyl]cyclobutane-3,4-dicarboxylic acid], the inhibition at 10 µM was 90%.
Molecule `CCCN(Cc1ccc(Oc2ccccc2)cc1)C(=O)[C@H]1[C@@H](C(=O)O)[C@H](C(=O)O)[C@@H]1C(=O)NCc1ccc(Oc2ccccc2)cc1` [Example 64D, (1α,2β,3β,4α)-1-[N-Propyl-N-(4-phenoxybenzyl)aminocarbonyl]-2-[N-(4-phenoxybenzyl)aminocarbonyl]cyclobutane-3,4-dicarboxylic acid] has an inhibition at 10 µM of 45%.
`O=C(O)[C@H]1[C@H](C(=O)O)[C@H](C(=O)OCc2ccc(Oc3ccccc3)cc2)[C@H]1C(=O)OCc1ccc(Oc2ccccc2)cc1` [Example 65B, (1α,2β,3β,4α)-1,2-Di-(4-phenoxybenzyloxycarbonyl)-3,4-dicarboxylic acid] showed an inhibition at 10 µM of 58%.
With `CCCN(C(=O)[C@H]1[C@@H](C(=O)O)[C@H](C(=O)O)[C@@H]1C(=O)N(CCC)c1ccc(Nc2ccccc2)cc1)c1ccc(Nc2ccccc2)cc1` [Example 66C, (1α,2β,3β,4α)-1,2-Di[N-propyl-N-(4-phenylaminophenyl)aminocarbonyl]cyclobutane-3,4-dicarboxylic acid] the inhibition at 10 µM was 33%.
In the case of `CCCN(Cc1ccc(Nc2ccccc2)cc1)C(=O)[C@H]1[C@@H](C(=O)O)[C@H](C(=O)O)[C@@H]1C(=O)N(CCC)Cc1ccc(Nc2ccccc2)cc1` [Example 67C, (1α,2β,3β,4α)-1,2-Di[N-propyl-N-(4-phenylaminobenzyl)aminocarbonyl]cyclobutane-3,4-dicarboxylic acid], the inhibition at 10 µM is reported as 87%.
Molecule `CCCN(Cc1ccc(Oc2ccccc2)cc1)C(=O)C1C(CO)C(C(=O)O)C1C(=O)N(CCC)Cc1ccc(Oc2ccccc2)cc1` (stereo not drawn) [Example 70B, (1α,2β,3β,4α)-1,2-Di[N-propyl-N-(4-phenoxybenzyl)aminocarbonyl]-4-hydroxymethyl-cyclobutane-3-carboxylic acid] has an inhibition at 10 µM of 80%.
Work on `CCCN(Cc1ccc(Oc2ccccc2)cc1)C(=O)C1C(C=NO)C(C(=O)O)C1C(=O)N(CCC)Cc1ccc(Oc2ccccc2)cc1` (stereo not drawn) [Example 71C, (1α,2β,3β,4α)-1,2-Di[N-propyl-N-(4-phenoxybenzyl)aminocarbonyl]-4-[(hydroxyimino)methyl]-cyclobutane-3-carboxylic acid] yielded an inhibition at 10 µM of 77%.
`CCCN(Cc1cccc(Oc2ccccc2)c1)C(=O)C1C(C(=O)O)C(C(=O)O)C1C(=O)N(CCC)Cc1cccc(Oc2ccccc2)c1` (stereo not drawn) [Example 81B, (1α,2β,3β,4α)-1,2-Di[N-propyl-N-(3-phenoxybenzyl)aminocarbonyl]cyclobutane-3.4-dicarboxylic acid] was tested, and the inhibition at 10 µM was 73%.
`CCCN(Cc1ccc(Oc2ccccc2)o1)C(=O)C1C(C(=O)O)C(C(=O)O)C1C(=O)N(CCC)Cc1ccc(Oc2ccccc2)o1` (stereo not drawn) [Example 82B, (1α,2β,3β,4α)-1,2-Di[N-propyl-N-(5-phenoxyfurfuryl)aminocarbonyl}cyclobutane-3,4-dicarboxylic acid] showed an inhibition at 10 µM of 67%.
`CCCN(Cc1ccc(Oc2ccccc2)s1)C(=O)C1C(C(=O)O)C(C(=O)O)C1C(=O)N(CCC)Cc1ccc(Oc2ccccc2)s1` (stereo not drawn) [Example 83B, (1α,2β,3β,4α)-1,2-Di[N-propyl-N-(5-phenoxythien-2-ylmethyl)aminocarbonyl]cyclobutane-3,4-dicarboxylic acid] showed an inhibition at 10 µM of 85%.
With `CCCN(Cc1ccc(Oc2ccco2)cc1)C(=O)C1C(C(=O)O)C(C(=O)O)C1C(=O)N(CCC)Cc1ccc(Oc2ccco2)cc1` (stereo not shown) [Example 84G] the inhibition at 10 µM was 89%.
`CCCN(Cc1ccc(Cn2cccc2)cc1)C(=O)C1C(C(=O)O)C(C(=O)O)C1C(=O)N(CCC)Cc1ccc(Cn2cccc2)cc1` (stereo not drawn) [Example 86D, (1α,2β,3β,4α)-1,2-Di[N-propyl-N-(4,(pyrrol-1-ylmethyl)benzyl)aminocarbonyl]cyclobutane-3,4-dicarboxylic acid] was tested, and the inhibition at 10 µM was 86%.
For `CCCN(Cc1ccc(Oc2cccc(C)c2)cc1)C(=O)C1C(C(=O)O)C(C(=O)O)C1C(=O)N(CCC)Cc1ccc(Oc2cccc(C)c2)cc1` (stereo not drawn) [Example 87B, (1α,2β,3β,4α)-1,2-Di{N-propyl-[4-(3'-methyl)phenoxybenzyl]aminocarbonyl}cyclobutane-3,4-dicarboxylic acid], the inhibition at 10 µM was 72%.
Work on `CCCN(Cc1ccc(Oc2ccc3ccccc3c2)cc1)C(=O)C1C(C(=O)O)C(C(=O)O)C1C(=O)N(CCC)Cc1ccc(Oc2ccc3ccccc3c2)cc1` (stereo not drawn) [Example 88, (1α,2β,3β,4α)-1,2-Di[N-propyl-N-(4-naphth-2-yloxybenzyl)aminocarbonyl]cyclobutane-3,4-dicarboxylic acid] yielded an inhibition at 10 µM of 86%.
In the case of `CCCN(Cc1ccc(Oc2ccccc2)c(C)c1)C(=O)C1C(C(=O)O)C(C(=O)O)C1C(=O)N(CCC)Cc1ccc(Oc2ccccc2)c(C)c1` (stereo not drawn) [Example 89C, (1α,2β,3β,4α)-1-2-Di{N-propyl-[3-methyl-4-phenoxybenzyl]aminocarbonyl}cyclobutane-3,4-dicarboxylic acid], the inhibition at 10 µM is reported as 88%.
Work on `CCCN(Cc1ccc(Oc2ccc(C)cc2)cc1)C(=O)C1C(C(=O)O)C(C(=O)O)C1C(=O)N(CCC)Cc1ccc(Oc2ccc(C)cc2)cc1` (stereo not drawn) [Example 90, (1α,2β,3β,4α)-1,2-Di[N-propyl-N-(4-(4-methyl-1-phenoxy)benzyl)aminocarbonyl]cyclobutane-3,4-dicarboxylic acid] yielded an inhibition at 10 µM of 53%.

Same assay, conditions: values marked * in Table 1: 1 µM test compound; rat liver microsomes, labelled farnesyl pyrophosphate, 10 minutes at 37 °C
`CCCN(Cc1ccc(Sc2ccccc2)cc1)C(=O)C1C(C(=O)O)C(C(=O)O)C1C(=O)N(CCC)Cc1ccc(Sc2ccccc2)cc1` (stereo not drawn) [Example 68B, (1α,2β,3β,4α)-1,2-Di[N-propyl-N-(4-phenylthiobenzyl)aminocarbonyl]cyclobutane-3,4-dicarboxylic acid] gave an inhibition at 1 µM of 84%.
`CCCN(Cc1ccc(COc2ccccc2)cc1)C(=O)C1C(C(=O)O)C(C(=O)O)C1C(=O)N(CCC)Cc1ccc(COc2ccccc2)cc1` (stereo not drawn) [Example 69E, (1α,2β,3β,4α)-1,2-Di[N-propyl-N-[4-phenoxymethylbenzyl]aminocarbonyl]cyclobutane-3,4-dicarboxylic acid] was tested, and the inhibition at 1 µM was 56%.
Molecule `CCCN(Cc1ccc(Oc2ccccc2)cc1)C(=O)C1C(C(=O)O)C(c2nn[nH]n2)C1C(=O)N(CCC)Cc1ccc(Oc2ccccc2)cc1` (stereo not shown) [Example 72C] has an inhibition at 1 µM of 51%.
Work on `CCCN(Cc1ccc(Oc2ccccc2)cc1)C(=O)C1C(Cc2nn[nH]n2)C(C(=O)O)C1C(=O)N(CCC)Cc1ccc(Oc2ccccc2)cc1` (stereo not shown) [Example 73B] yielded an inhibition at 1 µM of 75%.
For `CCCN(Cc1ccc(Oc2ccccc2)cc1)C(=O)C1C(NC(=O)C(=O)O)C(C(=O)O)C1C(=O)N(CCC)Cc1ccc(Oc2ccccc2)cc1` (stereo not shown) [Example 74D], the inhibition at 1 µM was 55%.
For `CCCN(Cc1ccc(Oc2ccccc2)cc1)C(=O)C1C(NC(=O)CCC(=O)O)C(C(=O)O)C1C(=O)N(CCC)Cc1ccc(Oc2ccccc2)cc1` (stereo not drawn) [Example 75B, (1α,2β,3β,4α)-1,2-Di[N-propyl-N-(4-phenoxybenzyl)aminocarbonyl]-4-(3-carboxypropionylamino)cyclobutane-3-carboxylic acid], the inhibition at 1 µM was 73%.
`CCCN(Cc1ccc(Oc2ccccc2)cc1)C(=O)C1C(C=CC(=O)O)C(C(=O)O)C1C(=O)N(CCC)Cc1ccc(Oc2ccccc2)cc1` (stereo not shown) [Example 76B] showed an inhibition at 1 µM of 57%.
For `CCCN(Cc1ccc(Oc2ccccc2)cc1)C(=O)C1C(CCC(=O)O)C(C(=O)O)C1C(=O)N(CCC)Cc1ccc(Oc2ccccc2)cc1` (stereo not shown) [Example 77B], the inhibition at 1 µM was 51%.
`CCCN(Cc1ccc(Oc2ccccc2)cc1)C(=O)C1C(C(=O)O)C(C(O)C(=O)O)C1C(=O)N(CCC)Cc1ccc(Oc2ccccc2)cc1` (stereo not drawn) [Example 78B, (1α,2β,3β,4α)-1,2-Di[N-propyl-N-(4-phenoxybenzyl)aminocarbonyl]-4-(1-carboxy-1-hydroxymethyl)cyclobutane-3-carboxylic acid] was tested, and the inhibition at 1 µM was 82%.
For `CCCN(Cc1ccc(Oc2nccs2)cc1)C(=O)C1C(C(=O)O)C(C(=O)O)C1C(=O)N(CCC)Cc1ccc(Oc2nccs2)cc1` (stereo not shown) [Example 85], the inhibition at 1 µM was 56%.
